From patent US20240277796A1, “METHODS FOR INHIBITING RAS” (Revolution Medicines, Inc., priority 2021, published 2024)
Several values for one entry are separate records, joined by “and”; a condition that tells them apart may be missing. Equal entries are not always repeated. Where two headings read alike, the source gives them in different places.

Tests used:
[1] = system: NCI-H358 (K-Ras G12C); assay: pERK potency assay, NCI-H358; type: cell-based; details: Homo sapiens; NCI-H358 cells, 4 hours incubation with compound
Method: The purpose of this assay was to measure the ability of test compounds to inhibit K-Ras in cells. Activated K-Ras induces increased phosphorylation of ERK at Threonine 202 and Tyrosine 204 (pERK). This procedure measures a decrease in cellular pERK in response to test compounds. The procedure described below in NCI-H358 cells is applicable to K-Ras G12C. […]
NCI-H358 cells were grown and maintained using media and procedures recommended by the ATCC. On the day prior to compound addition, cells were plated in 384-well cell culture plates (40 μl/well) and grown overnight in a 37° C., 5% CO2 incubator. Test compounds were prepared in 10, 3-fold dilutions in DMSO, with a high concentration of 10 mM. On the day of assay, 40 nL of test compound was added to each well of cell culture plate using an Echo550 liquid handler (LabCyte®). Concentrations of test compound were tested in duplicate. After compound addition, cells were incubated 4 hours at 37° C., 5% CO2. Following incubation, culture medium was removed and cells were washed once with phosphate buffered saline.
In some experiments, cellular pERK level was determined using the AlphaLISA SureFire Ultra p-ERK1/2 Assay Kit (PerkinElmer). Cells were lysed in 25 μL lysis buffer, with shaking at 600 RPM at room temperature. Lysate (10 μL) was transferred to a 384-well Opti-plate (PerkinElmer) and 5 μL acceptor mix was added. After a 2-hour incubation in the dark, 5 μL donor mix was added, the plate was sealed, and incubated 2 hours at room temperature. Signal was read on an Envision plate reader (PerkinElmer) using standard AlphaLISA settings. Analysis of raw data was carried out in Excel (Microsoft) and Prism (GraphPad). Signal was plotted vs. the decadal logarithm of compound concentration, and IC50 was determined by fitting a 4-parameter sigmoidal concentration response model.
In other experiments, cellular pERK was determined by In-Cell Western. Following compound treatment, cells were washed twice with 200 μL tris buffered saline (TBS) and fixed for 15 minutes with 150 μL 4% formaldehyde in TBS. Fixed cells were washed 4 times for 5 minutes with TBS containing 0.1% Triton X-100 (TBST) and then blocked with 100 μL Odyssey blocking buffer (LI-COR) for 60 minutes at room temperature. Primary antibody (pERK, CST-4370, Cell Signaling Technology) was diluted 1:200 in blocking buffer, and 50 μL were added to each well and incubated overnight at 4° C. Cells were washed 4 times for 5 minutes with TBST. Secondary antibody (IR-800CW rabbit, LI-COR, diluted 1:800) and DNA stain DRAQ5 (LI-COR, diluted 1:2000) were added and incubated 1-2 hours at room temperature. Cells were washed 4 times for 5 minutes with TBST. Plates were scanned on a Li-COR Odyssey CLx Imager. Analysis of raw data was carried out in Excel (Microsoft) and Prism (GraphPad). Signal was plotted vs. the decadal logarithm of compound concentration, and IC50 was determined by fitting a 4-parameter sigmoidal concentration response model.

[2] = 18-membered ring, DCM

Molecule | IC50 [1] [µM] | further results
tert-butyl ((6^3S,4S)-1^2-(2-((S)-1-methoxyethyl)pyridin-3-yl)-10,10-dimethyl-5,7-dioxo-1^1-(2,2,2-trifluoroethyl)-6^1,6^2,6^3,6^4,6^5,6^6-hexahydro-1^1H-8-oxa-1(5,3)-indola-6(1,3)-pyridazina-2(3,1)-azetidinacycloundecaphane-4-yl)carbamate | – | ring closure, isolated yield ([2]; ester bond, EDCI/HOBt/DIEA, 6.4 mM, 30.0 °C): 37%
CO[C@@H](C)c1ncccc1-c1c2c3cc(ccc3n1CC(F)(F)F)-c1coc(n1)C[C@H](NC(=O)OCc1ccccc1)C(=O)N1CCC[C@H](N1)C(=O)OCC(C)(C)C2 | – | ring closure, isolated yield ([2]; from CO[C@@H](C)c1ncccc1-c1c(CC(C)(C)COC(=O)[C@@H]2CCCNN2)c2cc(-c3coc(C[C@H](NC(=O)OCc4ccccc4)C(=O)O)n3)ccc2n1CC(F)(F)F, amide bond, EDCI/HOBt/DIEA, 6.3 mM, 16.0 h): 21%
CO[C@@H](C)c1ncccc1-c1c2c3cc(ccc3n1CC(F)(F)F)C1CCN(C1)C[C@H](NC(=O)OC(C)(C)C)C(=O)N1CCC[C@H](N1)C(=O)OCC(C)(C)C2 | – | ring closure, isolated yield ([2]; from CO[C@@H](C)c1ncccc1-c1c(CC(C)(C)CO)c2cc(C3CCN(C[C@H](NC(=O)OC(C)(C)C)C(=O)N4CCC[C@@H](C(=O)O)N4)C3)ccc2n1CC(F)(F)F, ester bond, EDCI/HOBt/DIEA, 7.1 mM, 16.0 h): 21%
CCn1c(-c2cc(N3CCN4CCOC[C@@H]4C3)cnc2[C@H](C)OC)c2c3cc(ccc31)C1=CCCN(C1)C[C@H](NC(=O)OC(C)(C)C)C(=O)N1CCC[C@H](N1)C(=O)OCC(C)(C)C2 | – | ring closure, isolated yield ([2]; from CCn1c(-c2cc(N3CCN4CCOC[C@@H]4C3)cnc2[C@H](C)OC)c(CC(C)(C)CO)c2cc(C3=CCCN(C[C@H](NC(=O)OC(C)(C)C)C(=O)N4CCC[C@@H](C(=O)O)N4)C3)ccc21, ester bond, EDC.HCl/HOBt/DIEA, 11.3 mM, 0.0 °C, 2.0 h): 67%
CCn1c(-c2cc(N3CCN4CCCC[C@@H]4C3)cnc2[C@H](C)OC)c2c3cc(ccc31)-c1cccc(c1)C[C@H](NC(=O)OC(C)(C)C)C(=O)N1CCC[C@H](N1)C(=O)OCC(C)(C)C2 | – | ring closure, isolated yield ([2]; from CCn1c(-c2cc(N3CCN4CCCC[C@@H]4C3)cnc2[C@H](C)OC)c(CC(C)(C)CO)c2cc(-c3cccc(C[C@H](NC(=O)OC(C)(C)C)C(=O)N4CCC[C@@H](C(=O)O)N4)c3)ccc21, ester bond, EDCI/HOBt/DIPEA, 11.3 mM, 16.0 h): 62%
CO[C@@H](C)c1ncc(N2CCN3CCOC[C@@H]3C2)cc1-c1c2c3cc(ccc3n1CC(F)(F)F)-c1cccc(c1)C[C@H](NC(=O)OC(C)(C)C)C(=O)N1CCC[C@H](N1)C(=O)OCC(C)(C)C2 | – | ring closure, isolated yield ([2]; from CO[C@@H](C)c1ncc(N2CCN3CCOC[C@@H]3C2)cc1-c1c(CC(C)(C)CO)c2cc(-c3cccc(C[C@H](NC(=O)OC(C)(C)C)C(=O)N4CCC[C@@H](C(=O)O)N4)c3)ccc2n1CC(F)(F)F, ester bond, EDCI/HOBt/DIPEA, 5.3 mM, 16.0 h): 98%
tert-butyl ((6^3S,4S,Z)-11-ethyl-1^2-(2-((S)-1-methoxyethyl)pyridin-3-yl)-10,10-dimethyl-5,7-dioxo-6^1,6^2,6^3,6^4,6^5,6^6-hexahydro-1^1H-8-oxa-2(5,3)-oxadiazola-1(5,3)-indola-6(1,3)-pyridazinacycloundecaphane-4-yl)carbamate | – | ring closure, isolated yield ([2]; ester bond, EDCI/HOBt/DIEA, 6.8 mM): 18%
prop-2-en-1-yl N-[(7S,13S,19M)-21-ethyl-20-[2-[(1 S)-1-methoxyethyl]pyridin-3-yl]-17,17-dimethyl-8,14-dioxo-4,15-dioxa-3,9,21,27,28-pentaazapentacyclo[17.5.2.1^[2,5]0.1^[9,13]0.0^[22,26]]octacosa-1(25),2,5(28),19,22(26),23-hexaen-7-yl]carbamate | – | ring closure, isolated yield ([2]; amide bond, HATU/DIEA, 139.0 mM): 33%
tert-butyl ((6^3S, 4S)-1^2-(2-((S)-1-methoxyethyl) pyridin-3-yl)-10,10-dimethyl-5,7-dioxo-1^1-(2,2,2-trifluoroethyl)-6^1,6^2,6^3,6^4,6^5,6^6-hexahydro-1^1H-8-oxa-1(5,3)-indola-6(1,3)-pyridazina-2(3,1)-piperidinacycloundecaphane-4-yl)carbamate | – | ring closure, isolated yield ([2]; ester bond, EDCI/HOBt/DIEA, 6.1 mM): 8% and 9%

The next lines start with results.

IC50 [1] [µM] | Molecule | further results
> 1 | CCn1c(-c2cccnc2[C@H](C)OC)c2c3cc(ccc31)N1CCO[C@@H](C[C@H](NC(=O)[C@H](C(C)C)N(C)C(=O)N3CCC4(CC3)CN(C(=O)/C=C/CF)C4)C(=O)N3CCC[C@H](N3)C(=O)OCC(C)(C)C2)C1 (atropisomer, axis not shown) [EA128] | –
> 1 | C=CC(=O)N1CCN(CC)C2(CCN(C(=O)N(C)[C@H](C(=O)N[C@H]3C[C@H]4CN(CCO4)c4ccc5c(c4)c(c(-c4cccnc4[C@H](C)OC)n5CC)CC(C)(C)COC(=O)[C@@H]4CCCN(N4)C3=O)C(C)C)CC2)C1 (atropisomer, axis not shown) [EA38] | –
> 1 | C=CC(=O)N1CCOC2(C1)CN(C(=O)N(C)[C@H](C(=O)N[C@H]1C[C@H]3CN(CCO3)c3ccc4c(c3)c(c(-c3cccnc3[C@H](C)OC)n4CC)CC(C)(C)COC(=O)[C@@H]3CCCN(N3)C1=O)C(C)C)C2 (atropisomer, axis not shown) [EA136] | –
> 1 | C=CC(=O)N1CCOC2(CCN(C(=O)N(C)[C@H](C(=O)N[C@H]3Cc4cncc(c4)-c4ccc5c(c4)c(c(-c4cccnc4[C@H](C)OC)n5CC)CC(C)(C)COC(=O)[C@@H]4CCCN(N4)C3=O)C(C)C)CC2)C1 (atropisomer, axis not shown) [EA124] | –
> 1 | C=CC(=O)N1CCOC2(CCN(C(=O)N(C)[C@H](C(=O)N[C@H]3Cc4cncc(n4)-c4ccc5c(c4)c(c(-c4cccnc4[C@H](C)OC)n5CC)CC(C)(C)COC(=O)[C@@H]4CCCN(N4)C3=O)C(C)C)CC2)C1 (atropisomer, axis not shown) [EA36] | –
> 0.89 | C=CC(=O)N1CCOC2(CCN(C(=O)N(C)[C@H](C(=O)N[C@H]3C[C@@]4(C)CN(CCO4)c4ccc5c(c4)c(c(-c4cccnc4[C@H](C)OC)n5CC)CC(C)(C)COC(=O)[C@@H]4CCCN(N4)C3=O)C(C)C)CC2)C1 (atropisomer, axis not shown) [EA130] | –
> 1 | C=CC(=O)N1COC2(CCN(C(=O)N(C)[C@H](C(=O)N[C@H]3CC4=NC=C(O4)c4ccc5c(c4)c(c(-c4cccnc4[C@H](C)OC)n5CC)CC(C)(C)COC(=O)[C@@H]4CCCN(N4)C3=O)C(C)C)CC2)C1 (atropisomer, axis not shown) [EA37] | –
> 1 | C=CC(=O)N1CCN(C)C2(CCN(C(=O)N(C)[C@H](C(=O)N[C@H]3C[C@H]4CN(CCO4)c4ccc5c(c4)c(c(-c4cccnc4[C@H](C)OC)n5CC)CC(C)(C)COC(=O)[C@@H]4CCCN(N4)C3=O)C(C)C)CC2)C1 (atropisomer, axis not shown) [EA189] | –
> 1 | CCn1c(-c2cccnc2[C@H](C)OC)c2c3cc(ccc31)C1=CCCN(C1)C[C@H](NC(=O)[C@H](C(C)C)N(C)C(=O)N1CCC3(CCN(C(=O)/C=C/CN(C)C)C3)CC1)C(=O)N1CCC[C@H](N1)C(=O)OCC(C)(C)C2 (atropisomer, axis not shown) [EA192] | –
> 1 | C=CC(=O)N1CCOC2(CCN(C(=O)N(C)[C@H](C(=O)N[C@H]3Cc4nccc(n4)-c4ccc5c(c4)c(c(-c4cccnc4[C@H](C)OC)n5CC)CC(C)(C)COC(=O)[C@@H]4CCCN(N4)C3=O)C(C)C)CC2)C1 (atropisomer, axis not shown) [EA191] | –
> 1 | C=CC(=O)N1CC2(CCN(C(=O)N(C)[C@H](C(=O)N[C@H]3C[C@H]4CN(CCO4)c4ccc5c(c4)c(c(-c4cccnc4[C@H](C)OC)n5CC)CC(C)(C)COC(=O)[C@@H]4CCCN(N4)C3=O)C(C)C)CC2)C1 (atropisomer, axis not shown) [EA121] | –
